Holding throughout (format): cell-based
Assay [1] has as its system H1650 NSCLC cell lines. As to the kind of experiment: Co-administration, cell viability, NSCLC (FIG. 26). Here is the method:
(§1) Cells were treated with a dose titration of either CB-839, an anti-cancer agent or a mixture thereof for 72 hours in growth media. At the end of the incubation, cell viability was measured using Cell Titer Glo as per manufacturer's protocol (Promega, Madison, Wis.). Cell proliferation for all compound treatments are represented as bar graphs, where luminescent output, Relative Light Units (RLU), correlates with viable cell number. Combination indices were calculated using the Calcusyn program (biosoft.com) and reported for individual mixtures of CB-839 and each agent.

Assay [2] has as its system P493-6 (myc “on”) cells. Description: Cell Proliferation Assay. Particulars: read-out: Cell prolif P493 72 h IC50. Here is the method: P493-6 (myc “on”) cells were maintained in growth media (RPMI-1640, 10% FBS, 2 mM glutamine, 100 units/ml Penicillin and 100 μg/ml streptomycin) at 37° C. with 5% CO2. For compound assay, P493-6 cells were plated in 96-well V-bottom plates on the day of compound addition in 50 μl of growth media at a cell density of 200,000 cells/ml (10,000 cells/well). Compounds were serially diluted in 100% DMSO at 200-times the final concentration. Compounds were diluted 100-fold into growth media and then 50 μl of this mixture was added to cell plates making the final concentration of DMSO 0.5%. Cells were incubated with compound for 72 hrs at 37° C. with 5% CO2 and analyzed for antiproliferative effects either by Cell Titer Glo (Promega) or FACS analysis using the Viacount (Millipore) kit on the Guava instrument.

Assay [3] deals with lung cancer cell lines. Description: Co-administration, cell viability (Cell Titer Glo), lung cancer. Here is the method: as §1
(Cellular ATP, detected with luciferase, serves as a proxy for viable cell number.)

Assay [4] relates to renal clear cell carcinoma cells. As to the kind of experiment: Co-administration, cell viability, renal clear cell carcinoma (FIG. 25). Particulars: combination with everolimus. Here is the method: as §1
In assay [5] the test system is triple negative breast cancer cell lines. Description: Co-administration, cell viability (Cell Titer Glo), triple negative breast cancer. Here is the method: as §1
Assay [6] relates to multiple myeloma cell lines. Description: Co-administration, cell viability (Cell Titer Glo), multiple myeloma. As to the method: as §1
Assay [7] has as its system renal cell carcinoma cell lines. As to the kind of experiment: Co-administration, cell viability (Cell Titer Glo), renal cell carcinoma. As to the method: as §1

Where two headings read alike, the source gives them in different places.

Here are results for four compounds from patent US9687485B2, “Combination therapy with glutaminase inhibitors” (Calithera Biosciences, Inc., priority 2014, dated 2017).

Broadly, the IC50 is the concentration that gives 50% inhibition.

As for `C#Cc1cccc(Nc2ncnc3cc(OCCOC)c(OCCOC)cc23)c1` [erlotinib, reference compound], the “sensitivity of the cells to erlotinib” value in assay [1] (erlotinib alone) was “resistant”.
As to `[2H]C([2H])(CCc1nnc(NC(=O)Cc2ccccn2)s1)C([2H])([2H])c1ccc(NC(=O)Cc2cccc(OC(F)(F)F)c2)nn1` [Compound 727], the IC50 in assay [2] (72 h) stood at 12 nM.
For `O=C(Cc1cccc(OC(F)(F)F)c1)Nc1ccc(CCCCc2nnc(NC(=O)Cc3ccccn3)s2)nn1` [CB-839], the “interaction of CB-839 with EGFR inhibitor erlotinib” value in assay [3] (FIG. 11, combination with erlotinib, 72 hours) was “synergy”. For the same compound, the “interaction of CB-839 with MEK inhibitor trametinib” value in assay [3] (FIG. 12, combination with trametinib, 72 hours) is on record as “synergy”; in assay [6] (FIG. 4, combination with trametinib, 72 hours), “strong synergy”; in assay [7] (FIG. 22, combination with trametinib, 72 hours) it was “synergy”. Further, the “interaction of CB-839 with mTOR inhibitor everolimus” value in assay [3] (FIG. 13, combination with everolimus, 72 hours) is reported as “synergy”; in assay [5] (FIG. 9, combination with everolimus, 72 hours), “synergy”; in assay [6] (FIG. 3, combination with everolimus, 72 hours), “strong synergy”; in assay [7] (FIG. 20, combination with everolimus, 72 hours), “synergy”. Besides, the “interaction of CB-839 with mTOR inhibitor temsirolimus” value in assay [3] (FIG. 14, combination with temsirolimus, 72 hours) was “synergy”; in assay [7] (FIG. 21, combination with temsirolimus, 72 hours), “synergy”. Also, the “interaction of CB-839 with AKT inhibitor MK2206” value is recorded as “synergy” in assay [3] (FIG. 15, combination with MK2206, 72 hours); “synergy” in assay [5] (FIG. 10, combination with MK2206, 72 hours); “strong synergy” in assay [6] (FIG. 2, combination with MK2206, 72 hours); “synergy” in assay [7] (FIG. 23, combination with MK2206, 72 hours). Also, the “interaction of CB-839 with PI3K/mTOR inhibitor BEZ235” value in assay [3] (FIG. 16, combination with BEZ235, 72 hours) is given as “synergy”; in assay [7] (FIG. 24, combination with BEZ235, 72 hours), “therapeutic interaction”. For the same compound, the “effect of the combination of CB-839 and everolimus” value in assay [4] was “synergistic antiproliferative activity”. In addition, in assay [5] (FIG. 6, combination with carboplatin, 72 hours), the “interaction of CB-839 with carboplatin” value was “therapeutic interaction”. Moreover, in assay [5] (FIG. 7, combination with gemcitabine, 72 hours), the “interaction of CB-839 with cytidine analog gemcitabine” value is listed as “additive effect”. The “interaction of CB-839 with doxorubicin” value in assay [5] (FIG. 8, combination with doxorubicin, 72 hours) is recorded as “therapeutic interaction”. In addition, in assay [1] (combination with erlotinib, erlotinib-resistant model), the “effect of the combination of CB-839 and erlotinib” value was “enhances the anti-tumor effects of each individual compound”. Moreover, the “interaction of CB-839 with vincristine” value in assay [6] (FIG. 1, combination with vincristine, 72 hours) was “synergy”. Moreover, the “interaction of CB-839 with RTK inhibitor sorafenib” value in assay [6] (FIG. 5, combination with sorafenib, 72 hours) is recorded as “strong synergy”; in assay [7] (FIG. 17, combination with sorafenib, 72 hours) it was “synergy”. Besides, in assay [7] (FIG. 18, combination with sunitinib, 72 hours), the “interaction of CB-839 with C-kit and pan-RTK inhibitor sunitinib” value is given as “synergy”. The “interaction of CB-839 with pan-RTK inhibitor pazopanib” value in assay [7] (FIG. 19, combination with pazopanib, 72 hours) is reported as “synergy”.
`[2H]C([2H])(CCc1nnc(N)s1)C([2H])([2H])c1ccc(NC(=O)Cc2cccc(OC(F)(F)F)c2)nn1` [Compound 726]: the half-inhibitory concentration (IC50) in assay [2] (P493-6, 72 h) came out at 610 nM.
